What was measured:
[1] = tested on: mouse DRG neurons; experiment: Patch clamp rheobase of DRG neurons: IBS-D biopsy supernatant-induced hyperexcitability; format: cell-based; conditions: I-343 10 μM, Dy4 30 μM, PD98059 50 μM
Protocol: An investigation as whether proteases from mucosal biopsies of IBS patients cause a persistent hyperexcitability of nociceptors was conducted by a mechanism that entails endosomal signaling of PAR2. Biopsies of colonic mucosa from patients with diarrhea-predominant IBS (IBS-D) or healthy control (HC) subjects were placed in culture medium (24 h, 37° C.). Mouse DRG neurons were then exposed to biopsy supernatants (30 min, 37° C.) and washed. Rheobase was measured 30 min after washing to assess persistent hyperexcitability. Supernatants of biopsies from IBS-D patients caused a persistent decrease in rheobase, consistent with hyperexcitability, when compared to supernatants from HC subjects (rheobase at 30 min: HC, 78.33±4.41 pA, 12 neurons, supernatant from 4 HC; IBS-D, 54.55±4.74 pA, 11 neurons, supernatant from 4 IBS-D; P<0.05; ANOVA, Tukey's multiple comparisons test) (FIG. 6A, B). I-343 (10 μM), Dy4 (dynamin inhibitor, 30 μM) and PD98059 (MEK1 inhibitor, 50 μM) abolished IBS-D-induced hyperexcitability of nociceptors (FIG. 6A-D).
The Queen's University Human Ethics Committee approved human studies. All subjects gave informed consent. Endoscopic biopsies were obtained from the descending colon of 13 adult IBS-D patients (12 female) diagnosed using ROME III criteria for diarrhea predominant IBS and of 12 health controls. All IBS patients had symptoms greater than 1 year and most were greater than 5 years. Celiac disease was excluded by blood test and patients over 40 years with daily diarrhea were biopsied at the time of colonoscopy to exclude microscopic colitis. […] Biopsies (8 samples per patient) were incubated in 250 μl of RPMI medium containing 10% fetal calf serum, penicillin/streptomycin and gentamicin/amphotericin B (95% O2/5% […], 24 h, 37° C.). Supernatants were stored at −80° C. Supernatants from 4-6 patients were pooled and studied in individual experiments.
DRG innervating the colon (T9-T13) were collected from C57BL/6 mice. Ganglia were digested by incubation in collagenase IV (1 mg/ml, Worthington) and dispase (4 mg/ml, Roche) (10 min, 37° C.). DRG were triturated with a fire-polished Pasteur pipette, and further digested (5 min, 37° C.). Neurons were washed, plated onto laminin- (0.017 mg/ml) and poly-D-lysine- (2 mg/ml) coated glass coverslips, and were maintained in F12 medium containing 10% fetal calf serum, penicillin and streptomycin (95% air, 5% CO2, 16 h, 37° C.) until retrieval for electrophysiological studies.
Small-diameter (<30 pF capacitance) neurons were studied because they display characteristics of nociceptors (Valdez-Morales E. E. et al., Am J Gastroenterol 2013, 108(10): 1634-1643). Changes in excitability were quantified by measuring rheobase. Whole-cell perforated patch-clamp recordings were made using Amphotericin B (240 μg/ml, Sigma Aldrich) in current clamp mode at room temperature. The recording chamber was perfused with external solution at 2 ml/min. Recordings were made using Multiclamp 700B or Axopatch 200B amplifiers, digitized by Digidata 1440A or 1322A, and processed using pClamp 10.1 software (Molecular Devices). Solutions had the composition (mM): pipette—K-gluconate 110, KC130, HEPES 10, MgCl2 1, CaCl2 2; pH 7.25 with 1 M KOH; external—NaCl 140, KCl 5 HEPES 10, glucose 10, MgCl2 1, CaCl2 2; pH to 7.3-7.4 with 3 M NaOH. […] Neurons were also preincubated with trypsin (50 nM, 10 min), NE (390 nM, 30 min), CS (500 nM, 60 min), or vehicle (37° C.), and washed. Rheobase was measured at T 0 or T 30 min after washing. To investigate mechanisms of protease-evoked effects, neurons were incubated with I-343 (100 nM, 300 nM, 10 μM, 30 min preincubation), SCH79797 (1 μM, 10 min), Dy4 (30 μM, 30 min), PS2 (15 μM, 30 min), PD98059 (50 μM, 30 min), GF109203X (10 μM, 30 min), or vehicle (preincubation and inclusion throughout). In experiments using the tripartite antagonist, neurons were preincubated with Compound 10 (30 μM, 60 min, 37° C.) or vehicle and washed. […]

[2] = tested on: colonic afferent neurons; experiment: Colonic afferent recordings, CVH mice (28 d post-TNBS); parameters: species or system mouse
Protocol: Transient colitis in mice induces hypersensitivity of colonic afferent neurons that persists after inflammation is resolved (Azpiroz F., et al., Neurogastroenterol Motil. 2007, 19(1 Suppl): 62-88). This chronic visceral hypersensitivity (CVH) may mimic post-infectious/inflammatory IBS. To determine whether proteases can further amplify CVH, mice were treated with trinitrobenzene sulphonic acid (TNBS, enema) to induce colitis. At 28 d post-TNBS, when inflammation is undetectable, mechanical stimulation of the colon induced a larger firing rate in CVH mice than in HC mice, consistent with chronic hyperexcitability (FIG. 21A-D). […] Thus, proteases can still amplify the excitability of colonic nociceptors even when they are already sensitized as a result of prior inflammation. The colon and rectum (5-6 cm) was removed from C57BL/6 mice. Afferent recordings were made from splanchnic nerves as described (Hughes, P. A. et al., Gut 2009, 58(10): 1333-134; Brierley, S. M. et al., Gastroenterology 2004, 127(1): 166-178). Briefly, the intestine was opened and pinned flat, mucosal side up, in an organ bath. […] Action potentials were analyzed using the Spike 2 […] function and discriminated as single units on the basis of distinguishable waveform, amplitude and duration. […]

Row | Compound | IBS-D-induced hyperexcitability of nociceptors [1] | rheobase of neurons exposed to HC supernatant [1] | further amplification of responses compared to basal, CVH mice [2] [%]
1 | Cc1nc(C(=O)N2CCN(C(=O)c3cn4nc(-c5ccc(F)cc5)cc(C(C)(C)C)c4n3)C(C)(C)C2)n[nH]1 [Compound I-343, (8-(tert-butyl)-6-(4-fluorophenyl)imidazo[1,2-b]pyridazin-2-yl)(2,2-dimethyl-4-(5-methyl-1H-1,2,4-triazole-3-carbonyl)piperazin-1-yl)methanone] | abolished | no effect | –
2 | O=C(N/N=C/c1cc(O)c(O)cc1O)c1cc2ccccc2cc1O [Dy4] | abolished | non-significant decrease | –
3 | NE: protease (elastase) activating PAR2 by biased mechanisms | – | – | 30.6±9.0
4 | trypsin | – | – | 16.4±7.9
